Assay results from US20150044701A1, “IgA-BINDING PEPTIDE AND IgA PURIFICATION USING THE SAME” (KAGOSHIMA UNIVERSITY, priority 2011, published 2015).
No end group written: not given here.

B1: Opt2 14AA (peptide)
peptide: HMVCLSYRGRPVCF
modifications: not fully specified (bridges); cysteine pairing not given here
B2: Opt2 M2Q L16T V12T (peptide)
peptide: HQVCLSYRGRPTCFST
modifications: not fully specified (bridges); cysteine pairing not given here
B3: Opt2 M2Q V12T (peptide)
peptide: HQVCLSYRGRPTCFSL
modifications: not fully specified (bridges); cysteine pairing not given here
B4: Opt2 M2Q L16T R10Q (peptide)
peptide: HQVCLSYRGQPVCFST
modifications: not fully specified (bridges); cysteine pairing not given here
B5: Opt2 M2Q F14Y (peptide)
peptide: HQVCLSYRGRPVCYSL
modifications: not fully specified (bridges); cysteine pairing not given here
B6: Opt2 M2Q L16T R10 Q V12T (peptide)
peptide: HQVCLSYRGQPTCFST
modifications: not fully specified (bridges); cysteine pairing not given here
B7: Opt2 M2Q L16T (peptide)
peptide: HQVCLSYRGRPVCFST
modifications: not fully specified (bridges); cysteine pairing not given here
B8: Opt2 M2Q (peptide)
peptide: HQVCLSYRGRPVCFSL
modifications: not fully specified (bridges); cysteine pairing not given here
B9: Opt2 15AA (peptide)
peptide: HMVCLSYRGRPVCFS
modifications: not fully specified (bridges); cysteine pairing not given here
B10: Opt2 M2Q R10Q (peptide)
peptide: HQVCLSYRGQPVCFSL
modifications: not fully specified (bridges); cysteine pairing not given here

Biological target: human IgA
Experiment: Surface plasmon resonance analysis (BiaCore T100) of peptide binding to human IgA
Details: binding affinity to human IgA
Protocol: In order to verify binding specificity of such peptides, binding strength was evaluated via surface plasmon resonance analysis using a BiaCore T100 (GE Healthcare).

Kd | Molecule
491 nM | HMVCLSYRGRPVCFS [Opt2 15AA]
2820 nM | HQVCLSYRGQPTCFST [Opt2 M2Q L16T R10 Q V12T]
65 nM | HQVCLSYRGQPVCFSL [Opt2 M2Q R10Q]
952 nM | HQVCLSYRGRPTCFST [Opt2 M2Q L16T V12T]
699 nM | HQVCLSYRGQPVCFST [Opt2 M2Q L16T R10Q]
624 nM | HQVCLSYRGRPVCYSL [Opt2 M2Q F14Y]
23 nM | HQVCLSYRGRPVCFSL [Opt2 M2Q]
72 nM | HQVCLSYRGRPVCFST [Opt2 M2Q L16T]
603 nM | HMVCLSYRGRPVCF [Opt2 14AA]
149 nM | HQVCLSYRGRPTCFSL [Opt2 M2Q V12T]

Biological target: human IgA (human)
Experiment: SPR (Biacore T100)
Details: not given

Kd | Molecule
603 nM | B1
952 nM | B2
149 nM | B3
699 nM | B4
624 nM | B5
2820 nM | B6
72 nM | B7
23 nM | B8
491 nM | B9
65 nM | B10
